Results published in US11058635B1, “Oral administration of 5-FU in a gelling nanosuspension for targeted delivery to treat colorectal cancers” (King Abdulaziz University, priority 2020, dated 2021).

Assay: In vitro drug release, pH-profile dialysis bag method
Format: physicochemical
Conditions: for overall pH-profile percentage release more than NAH-CRG-FU by: difference over 8 hrs
Text: The ultimate goals were to develop a formula with in-soluble gel forming ability in the gastric media with good coherence, to form a sedimented gel with a density >1 in the stomach, to increase the gastric emptying rate and to avoid the gastric adverse effects and metabolism of FU by keeping a minimal gastric release or coating it. On other hand, the formula needed to dissolve and release the drug and gel in the simulated intestinal media, especially the colonic area. The main target was to design a system that was able to inhibit release of the drug in the stomach (i.e., release at a lower rate than the release rate in the intestinal-colonic area). Formulation was prepared according to Table 2 and the pattern of 5-FU release in the pH-profile differed from that of free 5-FU. After preparation of different formulations with manipulation of NA amounts (18, 36 and 72 mg/mL) and CRG types (CRGk and CRGL), the drug release optimization confirmed that the optimum formulation with respect to FU release curve and parameters was the NAH-CRG-FU shown in Table 2 and FIG. 6. […] The comparisons between the release patterns of the NAH-CRG-FU formulation and free drug were done using the simulated gastric release percentage (%)-first 2 hrs, simulated intestinal-colonic release percentage-subsequent 6 hrs (summation of the proximal, distal intestine and colon percentage simulated release patterns), mean dissolution time (MDT) of simulated pre-intestinal region (gastric) and simulated intestine-colonic area. Furthermore, mean dissolution times for 1st 2 hrs of pre-intestinal (Pre-intestinal MDT) and from the 2nd to 8th hr of the release profile (Intestinal-colonic MDT) were obtained by the following equation (Bani-Jaber and Abdullah 2020, Costa and Lobo 2001).
[formula] wherein (i) expressed the release sample numbers, (n) referred to the number of release times, (t) was the mid-point time in the interval (ti-1-ti), (ΔM) was the released amount of drug in the interval (ti-1-ti). The MDT larger values could indicate a slower drug release rate. The predicted rate of release equates to the rate of dissolution, and this rate has a direct effect on the number of daily oral doses and any adverse effects associated therewith.
5-FU was prepared in a formulation of the NAH-CGR-FU gelling nanosuspension, as described in the previous Examples. Data from Table 2 was used to prepare a nanosuspension volume of 20 mL. The dose was loaded into a dialysis bag having a cut-off of 12000-14000 Dalton (Spectra/Por® 4-Dialysis membrane, USA). The dialysis bag was placed into a beaker containing 300 mL of release media. The bags were exposed to 0.1N HCl to simulate gastric media having a pH 1.2 for 2 hr, followed by simulated proximal intestine media, which was a phosphate buffer with pH 6.5 for 2 hr. This was followed by media simulating the media of the distal area of the small intestine, which was a phosphate buffer at a pH 6.8 for 2 hr. Finally, the dialysis bags were transferred to a phosphate buffer media having a pH 8 to simulate the media of a descending colon for 2 hrs. The sequential exposure in the different pH media was used to construct a pH dissolution profile. The temperature was constantly controlled at 37±0.5° C. in a water bath shaker of 75 rpm speed. To maintain sink conditions, the dissolution media underwent total replacement with a fresh medium every hour. After drug release optimization of the NA amount and CRG type was determined, the optimum formulation in-soluble gel that was formed in the acidic media was evaluated for the onset of formation and the extent of sedimentation.

- Gastric % Release (0.1N HCl pH 1.2, first 2 hr, 37 C, 75 rpm): 56.60 ± 0.0051%
- higher gastric percentage release than NAH-CRG-FU by (difference free 5-FU minus NAH-CRG-FU, first 2 hrs): 31.55%
- higher intestinal-colonic percentage release than NAH-CRG-FU by (difference free 5-FU minus NAH-CRG-FU, subsequent 6 hrs): 30.68%
- overall pH-profile percentage release more than NAH-CRG-FU by (listed as 5-FU alone): 62.23%
- overall pH-profile percentage release more than NAH-CRG-FU by (listed as 5-FU free): 62.2%
- Pre-Intestinal MDT (mean dissolution time, 1st 2 hrs, pH 1.2, n = 3 ± SD): 0.23 ± 0.0011 h
- Intestinal-Colonic MDT (mean dissolution time, 2nd to 8th hr, pH 6.5, 6.8, 8, n = 3 ± SD): 1.75 ± 0.0051 h
- released after 8 hrs of the pH-profile study (pH-profile 1.2-8, 8 hrs): 95.97%
- Proximal Intestine % Release (phosphate buffer pH 6.5, 2 hr): 23.04 ± 0.0022%
- Distal Intestine % Release (phosphate buffer pH 6.8, 2 hr): 9.08 ± 0.0019%
- Colon % Release (phosphate buffer pH 8, 2 hr): 7.26 ± 0.0014%
- Intestinal-Colonic % Release (subsequent 6 hrs, summation of proximal, distal intestine and colon): 39.37 ± 0.0071%
SMILES: O=c1[nH]cc(F)c(=O)[nH]1 [Free 5-FU, 5-fluorouracil]
